We go through four molecules from patent US9526729B2, “Medicament for treating peripheral neuropathies” (priority 2013, dated 2016).

One assay concerns the target viral polymerase (Human herpesvirus 1, UniProt P04293). Particulars: cited from earlier work.
The test system of assay [1] is Herpes simplex virus (HSV). The assay can be described thus: Clinical cases of alopecia due to HSV infection. Format: in vivo, human.
Assay [2] has as its system Herpes simplex virus (HSV). The assay can be described thus: Clinical cases of chilblain induced by HSV infection. The format is in vivo, human. Particulars: for clinical outcome, red swollen fingers with pain: 2nd case of chilblain. From the text: (§1) Step 102: Performing a Quick Tzanck Test (QTT) process. The QTT process can be applied to the tissue samples from the patient's skin so as to reveal some histopathological changes from the QTT sample, i.e. the tissue samples from the patient's skin, by using a microscope. The inspector or the medical staff can observe the histopathological changes to diagnose HSV infection.
(§2) Step 104: Performing an antibody testing or a PCR techniques on the tissue sample from the specific part of the patient. The antibody testing, such as the HSV IgG testing, the cytomegalovirus immunoglobulin G (CMV IgG) testing or the non-specific immunoglobulin E (IgE) testing is adapted to be performed on a peripheral blood, acting as the tissue sample, of the patient. The PCR testing is adapted to be performed on peripheral blood, skin, bone marrow, mucosa, saliva, cerebrospinal fluid, amniotic fluid, brain tissue, tears or skin secretions, acting as the tissue sample, of the patient. The antibody testing or PCR techniques may be referred to the description in the section of “Diagnosis of HSV Infection”. The normal titer for CMV IgG/HSV IgG is less than 2 and the normal titer for non-specific IgE is less than 170 IU/ml. When the tissue sample from peripheral blood of the patient has a titer for CMV IgG/HSV IgG greater than 2, the process of “anti-HSV treatments” in step 106 is then carried out. Otherwise, the step 108 of “other treatments” is carried out. Alternatively, when the result of detecting the tissue sample via the PCR techniques is positive, the process of “anti-HSV treatments” in step 106 is then carried out; when the result of detecting the tissue sample via the PCR techniques is negative, the step 108 of “other treatments” is carried out.
(§3) 1. Adult: Valacyclovir (500 mg) • a. 2 tablets daily (i.e. 1 tablet after breakfast and dinner) for 5-7 days. • b. 3 tablets daily (i.e. every 8 hours) for severe cases in the beginning only.

The subject of assay [3] is Herpes simplex virus (HSV). In words: Clinical cases of impetigo induced by HSV infection. The format is in vivo, human. Particulars: for clinical outcome, skin lesions: Acyclovir G. 10 mg/kg 4 times a day for 7 days + anti-allergic agents. On the procedure:
The QTT process can be applied to the tissue samples from the patient's skin so as to reveal some histopathological changes from the QTT sample, i.e. the tissue samples from the patient's skin, by using a microscope. The inspector or the medical staff can observe the histopathological changes to diagnose HSV infection.
as §3

Another assay has as its target viral thymidine kinase (Human herpesvirus 1, UniProt P0DTH5). Particulars: conversion into acyclo-guanosine monophosphate; cited from earlier work.
The test system of assay [4] is Herpes simplex virus (HSV). The assay can be described thus: Clinical cases of QTT-positive HSV-associated dermatitis treated with antiviral agent. Format: in vivo, human.
Source text: Step 100: Checking a potential disease (D) relates to a dermatosis or a non-skin disease. For example, some questions are given for the patient and the skin of the patient is checked by an experienced inspector or a medical staff to determine if a potential disease (D) had by the patent relates to a dermatosis or a non-skin disease. If the potential disease (D) relates to a dermatosis, the inspector or the medical staff will take some tissue samples from an affected part of a patient's skin, as illustrated in step 101, and the test in step 102 for testing the tissue samples from the patient's skin will continue. If the disease (D) relates to a non-skin disease, the inspector or the medical staff takes a tissue sample from a specific part, such as peripheral blood, skin, bone marrow, mucosa, saliva, cerebrospinal fluid, amniotic fluid, brain tissue, tears or skin secretions, of the patient, as illustrated in step 103, based on the method for testing the tissue sample in step 104, and then the test in step 104 for testing the tissue samples from the specific part of the patient will continue.
as §1
Step 106: Treating an anti-HSV treatment of, for example, prescribing an anti-HSV medicine or an anti-HSV cream for the patient. The patient may take the anti-HSV medicine to cure the HSV infection. Alternatively, the patient may apply the anti-HSV cream onto the affected part of the patient's skin.
as §3

Assay [5] has as its system recurrent erythema multiforme. Particulars: continuous acyclovir therapy; double-blind trial in 1995 (Tatnall); cited from earlier work.
For assay [6], the system named is Herpes simplex virus (HSV). In words: Clinical cases of diabetic skin complications (psoriasiform plaques induced by HSV infection). Particulars: Acyclovir (400 mg) 3 tablets daily for 10 days then 2 tablets daily for 10 days + NBUVB + Gr. I and III topical CS; 7 days afterwards. The format is in vivo, human.
Source text: as §2
1. […]

In assay [7] the test system is Herpes simplex virus (HSV). In words: Clinical cases of pyoderma gangrenosum induced by HSV infection. Format: in vivo, human.
For assay [8], the system named is Herpes simplex virus (HSV). The assay can be described thus: Clinical cases of acne induced by HSV infection. The format is in vivo, human. Particulars: for clinical outcome, symptoms: 7 days later. As for the experimental part: as §1, §3
Consequently, the treatment in the present invention of acne may comprise a cream or an ointment mixed by an Anti-HSV agent to put on the affected part of the patient, wherein the Anti-HSV agent comprises Valacyclovir or Acyclovir. For example, the ADO ointment used in this invention contains acyclovir, lidocaine and diclofenac.

[9] abbreviates: CASE 7, with anti-allergic agent and antibiotic ointment, 9 days later.

Sequence of viral thymidine kinase (P0DTH5 whole entry): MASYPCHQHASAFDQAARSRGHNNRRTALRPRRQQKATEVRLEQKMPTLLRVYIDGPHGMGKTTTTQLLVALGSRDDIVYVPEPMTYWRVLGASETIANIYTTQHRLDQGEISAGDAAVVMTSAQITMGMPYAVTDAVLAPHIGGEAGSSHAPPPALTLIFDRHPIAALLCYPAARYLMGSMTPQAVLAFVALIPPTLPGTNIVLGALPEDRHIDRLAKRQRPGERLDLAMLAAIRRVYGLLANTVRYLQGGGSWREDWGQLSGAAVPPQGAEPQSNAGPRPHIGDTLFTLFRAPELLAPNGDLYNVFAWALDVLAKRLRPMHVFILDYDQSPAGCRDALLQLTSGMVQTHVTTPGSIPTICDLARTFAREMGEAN
Sequence of viral polymerase (P04293 whole entry): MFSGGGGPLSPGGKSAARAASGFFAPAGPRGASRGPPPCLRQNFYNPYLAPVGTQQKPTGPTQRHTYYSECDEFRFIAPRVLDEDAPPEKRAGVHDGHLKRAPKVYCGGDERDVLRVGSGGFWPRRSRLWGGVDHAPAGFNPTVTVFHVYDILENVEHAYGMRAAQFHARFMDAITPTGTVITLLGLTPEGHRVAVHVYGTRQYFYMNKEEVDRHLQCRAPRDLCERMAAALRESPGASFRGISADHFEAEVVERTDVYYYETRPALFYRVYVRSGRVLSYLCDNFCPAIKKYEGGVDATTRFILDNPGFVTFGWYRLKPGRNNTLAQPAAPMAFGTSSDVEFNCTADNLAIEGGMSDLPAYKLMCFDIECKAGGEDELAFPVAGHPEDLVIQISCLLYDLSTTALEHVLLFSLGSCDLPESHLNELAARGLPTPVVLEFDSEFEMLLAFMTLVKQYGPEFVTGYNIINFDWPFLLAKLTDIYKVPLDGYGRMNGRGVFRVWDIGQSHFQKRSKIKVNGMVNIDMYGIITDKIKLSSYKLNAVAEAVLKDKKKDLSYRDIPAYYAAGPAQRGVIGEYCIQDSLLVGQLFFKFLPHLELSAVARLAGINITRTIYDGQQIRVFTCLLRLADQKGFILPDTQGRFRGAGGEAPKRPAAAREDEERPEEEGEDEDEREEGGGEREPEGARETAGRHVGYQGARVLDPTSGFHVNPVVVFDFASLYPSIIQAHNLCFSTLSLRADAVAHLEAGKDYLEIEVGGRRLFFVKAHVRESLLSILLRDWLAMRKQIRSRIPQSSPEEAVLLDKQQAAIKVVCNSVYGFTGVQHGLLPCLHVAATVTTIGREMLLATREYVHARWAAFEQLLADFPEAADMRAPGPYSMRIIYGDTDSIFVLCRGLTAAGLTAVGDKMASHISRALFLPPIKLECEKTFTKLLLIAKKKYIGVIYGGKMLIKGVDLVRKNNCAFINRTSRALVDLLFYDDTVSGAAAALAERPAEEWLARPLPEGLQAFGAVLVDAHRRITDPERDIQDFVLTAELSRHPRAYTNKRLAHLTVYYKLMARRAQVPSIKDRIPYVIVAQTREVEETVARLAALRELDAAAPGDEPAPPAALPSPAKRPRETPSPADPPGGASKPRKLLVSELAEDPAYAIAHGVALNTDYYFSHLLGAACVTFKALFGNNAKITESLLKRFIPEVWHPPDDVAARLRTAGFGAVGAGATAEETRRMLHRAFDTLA

With `Nc1nc2c(ncn2COCCOP(=O)(O)OP(=O)(O)OP(=O)(O)O)c(=O)[nH]1` [Acyclo-GTP, acyclo-guanosine triphosphate], the “greater affinity for viral than cellular polymerase” value on viral polymerase is “approximately 100 times”.
`Nc1nc(O)c2ncn(COCCO)c2n1` [Acyclovir, 2-Amino-1,9-dihydro-9-((2-hydroxyethoxy)methyl)-6H-purin-6-one]: in [1] (1st case of alopecia and acne-like eruption, after the treatment), the “clinical outcome, vesicopapules and pustules on back” value is “only a few vesicopapules and pustules on their back”. Further, the hair regrowth result in assay [1] (1st case of alopecia, Acyclovir (400 mg) 3 tablets daily for 10 days and 2 tablets daily for 14 days + anti-allergic agent + Gr. III topical CS, 23 days later) is “Small white hairs appeared especially over central portion”. In addition, the “clinical outcome, swelling, pain, erosion” value in assay [2] (1st case of chilblain, Acyclovir 200 mg 3 tablets daily for 7 days, 7 days later) is “The swelling and pain decreased a lot. The erosion improved”. For the same molecule, the “clinical outcome, skin lesions” value in [3] (1st case of impetigo, antibiotics, 9 days later) is “only some erythema on their mandible and some small red erosions over right cheek”; in assay [3] (5th case of impetigo, Gr. IV topical corticosteroids, antibiotic ointment, 5 days later), “some small erosions around their month and some vesiculopapules over the erythematosus eyelids”. The “clinical outcome, lesion” value in assay [3] (2nd case of impetigo, Acyclovir G. 10 mg/kg 4 times a day for 7 days + antibiotics ointment, 3 days later) was “The lesion dried, desquamated and became flat”. Moreover, the recurrence result in [3] (4th case of impetigo, about one year) is “no recurrence till now”; in assay [3] (5th case of impetigo, about 14 months), “no recurrence till now”. Also, the “effectiveness of viral thymidine kinase in phosphorylation versus cellular thymidine kinase” value on viral thymidine kinase is 3000 times. Besides, in assay [4] (CASE 6, QTT positive, 2 days later), the “clinical outcome, vesiculopapules and plaques” value was “nearly no vesiculopapules and plaques over their trunk and upper extremity”. Further, the “clinical outcome, earlier similar eruptions” value in assay [4] (Case 8, 5-7 days of acyclovir granules, 7 and 9 months ago) is “Completely disappearance of similar eruptions”. The “suppression of recurrent erythema multiforme” value in assay [5] was “completely suppressed”. The “clinical outcome, psoriasiform plaques” value in [6] is “Some lesions disappeared and the scaling of the psoriasiform plaques decreased a lot”.
Consider `CC(C)C(N)C(=O)OCCOCn1cnc2c(=O)nc(N)[nH]c21` (centres unmarked) [Valacyclovir, 2-[(2-amino-6-oxo-6,9-dihydro-3H-purin-9-yl)methoxy]ethyl-2-amino-3-methylbutanoate], for which the hair regrowth entry in assay [1] (1st case of alopecia, about 7 weeks after they finished Valacyclovir 2 tablets daily for 5 days) is “New hairs including black hairs increased a lot”; in [1] (2nd case of alopecia, same regimen, 4 weeks later) it was “hair increased obviously on the right side and posterior aspect”; in [1] (2nd case of alopecia, same regimen, 16 weeks later), “New black hairs (circle) were observed and no more alopecia on the right side”. Also, the “clinical outcome, pustule” value in [1] (2nd case of alopecia, Valacyclovir 1 tablets daily for 95 days + anti-allergic agent + Acyclovir ointment for 6 weeks, a week later) is “The pustule disappeared”. Further, the “clinical outcome, atrophic plague” value in [1] (2nd case of alopecia, same regimen, 2 weeks later) is “nearly no change on the atrophic plague”. For the same molecule, the “clinical outcome, red swollen fingers with pain” value is given as “improved” in assay [2] (after 2nd prescriptions: Valacyclovir 1 tablets daily for 14 days + anti-allergic agent + ADO ointment 2 time daily) and “nearly cured” in assay [2] (after 3rd prescriptions: Valacyclovir 1 tablets daily for 14 days + anti-allergic agent + ADO ointment 2 time daily). In addition, the “clinical outcome, vesicles” value in [3] (3rd case of impetigo, Valacyclovir 2 tablets daily + anti-allergic agent, 3 days after the treatment) was “the vesicles found over their left neck 6 days ago collapsed”; in assay [4] (Case 9, with anti-allergic agent, 3 days after treatment), “the roofs of the vesicles detached and became crusted erosions”. Also, the “clinical outcome, symptoms” value in assay [3] (3rd case of impetigo, Valacyclovir 2 tablets daily for 7 days + anti-allergic agent + antibiotics 2 days, 7 days later) is listed as “Symptoms have significantly improved”; in assay [8] (5th case of acne, Valacyclovir 2 tablets daily for 5 days + antibiotics 2 days + Nadifloxacin cream) it was “Symptoms have significantly improved”; in [8] (6th case of acne, Valacyclovir 2 tablets daily for 5 days + Nadifloxacin cream + Gr. IV topical CS), “Symptoms have significantly improved”. Moreover, the “clinical outcome, vesicles and swelling of forearm” value in assay [4] (CASE 5, 2 days after Valacyclovir granule) was “Most of the vesicles became crusts and the swelling of their forearm improved a lot”. Besides, in assay [4] (setting [9]), the “clinical outcome, anterior chest” value is “only few vesiculopapules over their anterior chest”. Moreover, the “clinical outcome, lower abdomen” value in assay [4] (setting [9]) was “nearly no punched out erosions over their lower abdomen”. Further, the recurrence result in [4] (Case 9, follow-up after treatment) is reported as “no recurrence for 2 years”; in assay [8] (4th case of acne, after completed medication, about one year) it was “no recurrence till now”. Besides, the “clinical outcome, skin lesion” value in [4] (Case 9, with anti-allergic agent, 7 days later) is listed as “healed completely”. In [7] (1st case of pyoderma gangrenosum, Valacyclovir 3 tablets daily for 10 days + anti-allergic agent, antibiotics ointment, Gr. III topical CS, 10 days later), the “clinical outcome, erosions and oozing” value is “no more erosions and oozing”. In [8] (1st case of acne, Valacyclovir 2 tablets daily for 5 days + Nadifloxacin cream, 5 days later), the “clinical outcome, pustules and inflammation” value is “The number of the pustules and the extent of inflammation decreased”. For the same molecule, the “clinical outcome, pustules” value was “Nearly no pustules were seen” in [8] (2nd case of acne, Valacyclovir 2 tablets daily for 5 days + ADO ointment, 8 days later) and “Not only the number but also the size of the pustules decreased a lot” in [8] (4th case of acne, Valacyclovir 2 tablets daily for 5 days + anti-allergic agent + Gr. IV topical CS, 2 days later). Further, the “clinical outcome, inflammation and comedoes” value in [8] (3rd case of acne, Valacyclovir 2 tablets daily for 5 days per month + ADO ointment, 23 days later) was “The severe inflammation on the nose and over the left cheek decreased a lot”.
Take `C[C@]12C=CC(=O)C=C1CC[C@@H]1[C@@H]2[C@@H](O)C[C@@]2(C)[C@H]1CC[C@]2(O)C(=O)CO` [prednisolone]: the “clinical outcome, symptoms” value in assay [7] (2nd case of pyoderma gangrenosum with ulcerative colitis, oral prednisolone 40 mg tapered + gentamycin ointment + mesalazine, no antiviral, 13 days later) is reported as “Symptoms have significantly improved”.
